Measurements from article PMC11643962, “Exploring 4,7-Disubstituted Pyrimido[4,5-d]pyrimidines as Antiviral and Anticancer Agents” (Molecules, 2024).
Like-named read-outs stand apart in the source and are kept apart here.

Legend:
HCoV-229E = assay: Antiviral CPE reduction assay, HCoV-229E in HEL299 cells; assay type: cell-based, human coronavirus 229E; conditions: Human coronavirus 229E, HEL 299, MTS, mean ± SD of two or three independent experiments
HCoV-OC43 = assay: Antiviral CPE reduction assay, HCoV-OC43 in HEL299 cells; assay type: cell-based, human coronavirus OC43; conditions: Betacoronavirus 1, OC43, HEL 299, MTS, mean ± SD of two or three independent experiments
HCoV-NL63 = assay: Antiviral CPE reduction assay, HCoV-NL63 in Hep3B cells; assay type: cell-based, human coronavirus NL63; conditions: Human coronavirus NL63, MTS, mean ± SD of two or three independent experiments
[1] = system: influenza A/H1N1 (A/Ned/378/05); assay: Antiviral CPE reduction assay, influenza A/H1N1 in MDCK cells; assay type: cell-based, influenza A virus; conditions: Influenza A virus, read-out: Antiviral Activity (EC50) Influenza H1N1
[2] = system: influenza A/H3N2 (A/HK/7/87); assay: Antiviral CPE reduction assay, influenza A/H3N2 in MDCK cells; assay type: cell-based, influenza A virus; conditions: Influenza A virus, read-out: Antiviral Activity (EC50) Influenza H3N2
[3] = system: influenza B (B/Ned/537/05); assay: Antiviral CPE reduction assay, influenza B in MDCK cells; assay type: cell-based, influenza B virus; conditions: Influenza B virus, MDCK, read-out: Antiviral Activity (EC50) Influenza B
[4] = system: respiratory syncytial virus A (RSV A Long); assay: Antiviral CPE reduction assay, RSV A Long in Hep2 cells; assay type: cell-based; conditions: human respiratory syncytial virus
[5] = system: herpes simplex virus-1 (HSV-1 KOS); assay: Antiviral CPE reduction assay, HSV-1 KOS in HEL299 cells; assay type: cell-based; conditions: Human alphaherpesvirus 1, HEL 299, MTS, mean ± SD, no unit printed on the supplement page (Table 2 of the same screen is in µM)
[6] = system: yellow fever virus (YFV 17D); assay: microbe, parasite or virus in culture; assay type: cell-based; conditions: Yellow fever virus, Vero C1008, read-out: Antiviral activity (EC50) YFV 17D
Zika virus (ZikV mr766) = assay: Antiviral CPE reduction assay, Zika virus mr766 in VeroE6 cells; assay type: cell-based; conditions: Zika virus, Vero C1008, MTS, mean ± SD, no unit printed on the supplement page (Table 2 of the same screen is in µM)
in vitro [7] = conditions: human
in vitro [8] = conditions: human; remark: listed apart in the source
in vitro [9] = conditions: dog
in vitro [10] = conditions: human; remark: listed apart in the source
in vitro [11] = conditions: African green monkey
[12] = system: HL-60 (acute myeloid leukemia); assay: MTS proliferation assay, HL-60; conditions: Homo sapiens, HL-60, 72 h, read-out: Anti-Proliferative Activity (IC50) HL-60
[13] = system: K-562 (chronic myeloid leukemia); assay: MTS proliferation assay, K-562; conditions: Homo sapiens, K562, 72 h, read-out: Anti-Proliferative Activity (IC50) K-562
[14] = system: Z-138 (non-Hodgkin lymphoma); assay: MTS proliferation assay, Z-138; conditions: Homo sapiens, Z-138, 72 h, read-out: Anti-Proliferative Activity (IC50) Z-138
LN-229 (glioblastoma) = assay: MTS proliferation assay, LN-229; conditions: Homo sapiens, LN-229, 72 h, read-out: Anti-Proliferative Activity (IC50) LN-229
[15] = system: DND-41 (acute lymphoblastic leukemia); assay: MTS proliferation assay, DND-41; conditions: Homo sapiens, DND41, 72 h, read-out: Anti-Proliferative Activity (IC50) DND-41
[16] = system: Capan-1 (pancreatic adenocarcinoma); assay: MTS proliferation assay, Capan-1; conditions: Homo sapiens, CAPAN-1, 72 h, read-out: Anti-Proliferative Activity (IC50) Capan-1
[17] = system: HCT-116 (colorectal carcinoma); assay: MTS proliferation assay, HCT-116; conditions: Homo sapiens, HCT-116, 72 h, read-out: Anti-Proliferative Activity (IC50) HCT-116
[18] = system: NCI-H460 (lung carcinoma); assay: MTS proliferation assay, NCI-H460; conditions: Homo sapiens, NCI-H460, 72 h, read-out: Anti-Proliferative Activity (IC50) NCI-H460
[19] = H1N1, MDCK cells, CPE reduction, MTS, mean ± SD of two or three independent experiments
[20] = H3N2, MDCK cells, CPE reduction, MTS, mean ± SD of two or three independent experiments
[21] = HEp-2, Hep2 cells, CPE reduction, MTS, mean ± SD of two or three independent experiments, read-out: Antiviral Activity (EC50) RSV A Long
[22] = HEp-2, read-out: Antiviral Activity (EC50) RSV A Long

Row | Structure (SMILES) | EC50 (HCoV-229E) [µM] | EC50 (HCoV-OC43) [µM] | EC50 (HCoV-NL63) [µM] | EC50 [1, 19] [µM] | EC50 [2, 20] [µM] | EC50 [3] [µM] | EC50 [4, 21] [µM] | EC50 [5] [µM] | EC50 [6] [µM] | EC50 (Zika virus (ZikV mr766)) [µM] | CC50 (in vitro [9]) [µM] | CC50 (in vitro [11]) [µM] | IC50 [12] [µM] | IC50 [13] [µM] | IC50 [14] [µM] | IC50 (LN-229 (glioblastoma)) [µM] | IC50 [15] [µM] | IC50 [16] [µM] | IC50 [17] [µM] | IC50 [18] [µM] | other results
1 | CN(C)CCNc1ncc2c(Nc3cccc4c3CCC4)ncnc2n1 [Compound 7e, N^5-(2,3-dihydro-1H-inden-4-yl)-N^2-(2-(dimethylamino)ethyl)pyrimido[4,5-d]pyrimidine-2,5-diamine] | 20.6 ± 0.3 | > 50 | > 50 | > 50 | > 50 | > 50 | > 50 | > 50 | > 50 | > 50 | > 50 | > 50 | > 100 | > 100 | > 100 | > 100 | > 100 | > 100 | > 100 | > 100 | melting point: 180.9 °C; CC50 (in vitro [7]): > 50 µM; CC50 (in vitro [8]): > 50 µM; CC50 (in vitro [10]): > 50 µM
2 | CCN(CC)CCNc1ncc2c(Nc3cccc4c3CCC4)ncnc2n1 [Compound 7f, N^5-(2,3-dihydro-1H-inden-4-yl)-N^2-[2-(diethylamino)ethyl]pyrimido[4,5-d]pyrimidine-2,5-diamine] | 3.9 ± 2.9 | 37.3 ± 15.1 | > 50 | > 50 | > 50 | > 50 | > 50 | > 50 | > 50 | > 50 | > 50 | > 50 | > 100 | > 100 | > 100 | > 100 | > 100 | > 100 | > 100 | > 100 | melting point: 172.9 °C; CC50 (in vitro [7]): > 50 µM; CC50 (in vitro [8]): > 50 µM; CC50 (in vitro [10]): > 50 µM
3 | COc1cc([C@@H]2c3cc4c(cc3[C@@H](O[C@@H]3O[C@@H]5CO[C@@H](C)O[C@H]5[C@H](O)[C@H]3O)[C@H]3COC(=O)[C@H]23)OCO4)cc(OC)c1O [Etoposide, etoposide, reference compound] | – | – | – | – | – | – | – | – | – | – | – | – | 0.2 ± 0.01 | 6 ± 2 | 0.08 ± 0.03 | 3 ± 0.2 | 0.1 ± 0.02 | 0.1 ± 0.03 | 1.4 ± 0.09 | 2.2 ± 0.8 | –
4 | CN(C)CCNc1ncc2c(Nc3cccc4c3CCCC4)ncnc2n1 [Compound 7a, N^2-[2-(Dimethylamino)ethyl]-N^5-(5,6,7,8-tetrahydronaphthalen-1-yl)pyrimido[4,5-d]pyrimidine-2,5-diamine] | 15.8 ± 0.9 | 27.7 ± 0.6 | > 50 | > 50 | > 50 | > 50 | > 50 | > 50 | > 50 | > 50 | > 50 | > 50 | > 100 | 87 ± 1.3 | 58.9 ± 1.8 | > 100 | 57.9 ± 2 | > 100 | > 100 | > 100 | melting point: 176.3 °C; CC50 (in vitro [7]): > 50 µM; CC50 (in vitro [8]): > 50 µM; CC50 (in vitro [10]): > 50 µM
5 | C#Cc1cccc(Nc2ncnc3cc(OCCOC)c(OCCO)cc23)c1 [OSI-420, reference compound] | > 100 | > 100 | > 100 | – | – | > 100 | – | > 100 | > 100 | > 100 | > 100 | > 100 | > 100 | > 100 | > 100 | > 100 | > 100 | 41.7 ± 3.6 | > 100 | > 100 | EC50 ([1]; H1N1, MDCK): > 100 µM; EC50 ([2]; H3N2, MDCK): > 100 µM; EC50 [4, 22]: > 100 µM
6 | CCC(CC)COC(=O)[C@H](C)N[P@](=O)(OC[C@H]1O[C@@](C#N)(c2ccc3c(N)ncnn23)[C@H](O)[C@@H]1O)Oc1ccccc1 [Remdesivir, remdesivir, reference compound] | 0.05 ± 0.04 | 0.14 ± 0.007 | 0.14 ± 0.04 | – | – | – | 0.008 ± 0.001 | – | – | – | – | – | – | – | – | – | – | – | – | – | CC50 (in vitro [7]): > 10 µM
7 | C#Cc1cccc(Nc2ncnc3nc(NCCN(CC)CC)ncc23)c1 [Compound 7i, N^2-[2-(diethylamino)ethyl]-N^5-(3-ethynylphenyl)pyrimido[4,5-d]pyrimidine-2,5-diamine] | 19.3 ± 6.6 | ≥ 39.8 | > 50 | > 50 | > 50 | > 50 | > 50 | > 50 | > 50 | > 50 | > 50 | > 50 | > 100 | 51.8 ± 3.5 | 62.1 ± 0.8 | > 100 | 62.6 ± 0.1 | > 100 | > 100 | > 100 | –
8 | CC(=O)N[C@H]1[C@H]([C@H](O)[C@H](O)CO)OC(C(=O)O)=C[C@@H]1N=C(N)N [Zanamivir, zanamivir, reference compound] | – | – | – | 0.6 ± 0.3 | 3 ± 0.2 | 0.4 ± 0.01 | – | – | – | – | > 100 | – | – | – | – | – | – | – | – | – | –
9 | C#Cc1cccc(Nc2ncnc3cc(OCCOC)c(OCCOC)cc23)c1 [Erlotinib, erlotinib, reference compound] | 22.5 ± 10 | > 100 | > 100 | > 100 | > 100 | > 100 | > 100 | > 100 | > 100 | > 100 | > 100 | > 100 | 10.7 ± 0.1 | > 100 | > 100 | > 100 | > 100 | 18.6 ± 1.1 | > 100 | > 100 | CC50 (in vitro [7]): > 100 µM; CC50 (in vitro [8]): > 100 µM; CC50 (in vitro [10]): > 100 µM
10 | NC(=O)c1ncn([C@@H]2O[C@H](CO)[C@@H](O)[C@H]2O)n1 [Ribavirin, ribavirin, reference compound] | 38.9 ± 1.7 | 100 ± 19 | 39.9 ± 7.1 | – | – | 7.4 ± 0.8 | – | – | 24.5 | 104 | > 250 | > 250 | – | – | – | – | – | – | – | – | EC50 ([1]; H1N1, MDCK): 9.6 ± 1 µM; EC50 ([2]; H3N2, MDCK): 7.2 ± 1.6 µM; EC50 [4, 22]: 35.9 ± 1.3 µM
11 | CC(N)C12CC3CC(CC(C3)C1)C2 (centres unmarked) [Rimantadine, rimantadine, reference compound] | – | – | – | 1.7 ± 0.5 | 0.6 ± 0.07 | > 100 | – | – | – | – | > 100 | – | – | – | – | – | – | – | – | – | –
